Measured values reported in EP2552195B1, “ANTIMICROBIAL OIL-IN-WATER EMULSION” (B. Braun Melsungen AG, priority 2010, dated 2011).

How the values were obtained:
Assay type in all cases: cell-based
[1] = tested on: Staphylococcus aureus (ATCC 6538); assay: Inactivator test per prEN13727 (2008) and prEN13624 (2010); details: n = 4
Source text: (§1) Es wurden Öl in Wasser Emulsionen hergestellt, die unterschiedliche Mengen X des antimikrobiellen Wirkstoffs Polyhexamethylenbiguanidiniumhydrochlorid (PHMB) [erfindungsgemäß] und Chlorhexidin (CHX) [Vergleich] aufweisen. Die Öl in Wasser Emulsionen sind in Tabelle 7 wiedergegeben. Tabelle 7
(§2) Um die Wirksamkeit der antimikrobiellen Wirkstoffe in einem bestimmten Konzentrationsbereich in einer Öl in Wasser Emulsion zu testen wurde ein Inaktivatortest nach prEN13727 (2008) und prEN13624 (2010) gegenüber Enterococcus hirae (ATCC 10541), Escherichia coli (ATCC 11229), Pseudomonas aeruginosa (ATCC 15442) und Staphylococcus aureus (ATCC 6538) für n = 4 durchgeführt. Die Messergebnisse sind in Tabelle 8 wiedergegeben. Tabelle 8

[2] = tested on: Pseudomonas aeruginosa (ATCC 15442); assay: as above; details: n = 4
Source text: as §1, §2

[3] = tested on: Escherichia coli (ATCC 11229); assay: as above; details: n = 4
Source text: as §1, §2

[4] = tested on: Enterococcus hirae (ATCC 10541); assay: as above; details: n = 4
Source text: as §1, §2

Prüfmikroorganismen = assay: Inactivator test, overall statement for all four test organisms; details: concentration range 0,02 - 0,05 Gew.-% in o/w emulsion
Source text: as §2

[5] = 0,02% active in o/w emulsion (Tabelle 7)
[6] = 0,03% active in o/w emulsion (Tabelle 7)
[7] = 0,04% active in o/w emulsion (Tabelle 7)
[8] = 0,05% active in o/w emulsion (Tabelle 7)

N=C(NCCCCCCNC(=N)NC(=N)Nc1ccc(Cl)cc1)NC(=N)Nc1ccc(Cl)cc1 [CHX, Chlorhexidin]
Kolonien-bildende Einheiten S. aureus [1, 5]: 149 ± 5 | Kolonien-bildende Einheiten S. aureus [1, 6]: 156 ± 13 | Kolonien-bildende Einheiten S. aureus [1, 7]: 160 ± 8 | Kolonien-bildende Einheiten S. aureus [1, 8]: 159 ± 10 | Kolonien-bildende Einheiten P. aeruginosa [2, 5]: 316 ± 50 | Kolonien-bildende Einheiten P. aeruginosa [2, 6]: 315 ± 43 | Kolonien-bildende Einheiten P. aeruginosa [2, 7]: 355 ± 10 | Kolonien-bildende Einheiten P. aeruginosa [2, 8]: 339 ± 37 | Kolonien-bildende Einheiten E. coli [3, 5]: 132 ± 1 | Kolonien-bildende Einheiten E. coli [3, 6]: 131 ± 5 | Kolonien-bildende Einheiten E. coli [3, 7]: 130 ± 9 | Kolonien-bildende Einheiten E. coli [3, 8]: 130 ± 9 | Kolonien-bildende Einheiten E. hirae [4, 5]: 104 ± 4 | Kolonien-bildende Einheiten E. hirae [4, 6]: 102 ± 5 | Kolonien-bildende Einheiten E. hirae [4, 7]: 106 ± 3 | Kolonien-bildende Einheiten E. hirae [4, 8]: 106 ± 3 | mikrobiozide Wirkung in der Öl in Wasser Emulsion (Prüfmikroorganismen): inaktiviert vollständig
